# Assay results reported in patent publication US7557110B2, “Pyrazolo[1,5-A] pyrimidine derivatives” (Teijin Pharma Limited, priority 2003, dated 2009).
# Read-outs that look alike come from different tables or passages of the source.
# What was measured:
# MAPKAP-K2 = MAPKAP-K2 (Homo sapiens, UniProt P49137); test: MAPKAP-K2 enzyme activity inhibition (33P-ATP filter plate kinase assay); assay type: biochemical; details: MAPKAP-K2 inhibitory activity; assays conducted at typically 1-100 μM; note: key: +: active; ++: more active; +++: very active
# CDK-2 = CDK-2 (Homo sapiens, UniProt P24941); test: CDK-2 enzyme activity inhibition (33P-ATP filter plate kinase assay); assay type: biochemical
# Text: [General Procedure for Measurement of CDK-2 Enzyme Activity Inhibition]
# CDK-1 = CDK-1 (Homo sapiens, UniProt P06493); test: CDK-1 enzyme activity inhibition (33P-ATP filter plate kinase assay)
# Procedure: [General Procedure for Measurement of CDK-1 Enzyme Activity Inhibition]
# Compounds were dissolved in DMSO at a concentration of 10 mM and stored in aliquots at −20° C. Compounds in DMSO from these stock aliquots were diluted in DMSO to produce the required range of 30× stock solutions. These stock solutions were then subjected to 1:3 dilutions in order to prepare the required range of 10× stock solutions and 5 μL of each solution was used per 50 μL reaction.
# The kinase reaction was conducted in a round-bottomed polypropylene 96-well plate. CDK-1 was diluted to 0.5 U/μL in diluent buffer (50 mM Tris/HCl. pH7.5, 0.1 mM EGTA, 0.1% (v/v) β-mercaptoethanol, 1 mg/mL BSA). 5 μL compound or 30% DMSO was added to each well followed by 25 μL substrate cocktail (final concentration: 10 μM ATP, 50 μM peptide ([sequence]), 0.5 μCi ^33P-γ-ATP in 50 mM Tris-HCl (pH 7.5), 1 mM EGTA, 2 mM DTT, 10 mM MgCl2, 0.01% Brij-35). The reaction was initiated with the addition of 20 μL enzyme solution per well or 20 μL of diluent buffer without enzyme. The plate was shaken for 10 seconds and then left at room temperature for 15 minutes. The reaction was terminated with 50 μL 150 mM phosphoric acid. 90 μL of the reaction mixture was then transferred into a 96-well P81 filter plate (Whatmann) and incubated at room temperature for 5 minutes. The filter plate was then washed 4 times with 200 μL 75 mM phosphoric acid per well on a plate vacuum manifold (Millipore) and dried in an oven for 2-3 hours. Packard MicroScint ‘0’ (30 μL) was then added to each well, the plate was miffed for 30 minutes and subjected to liquid scintillation counting on a Packard TopCount.
# [1] = read-out: CDK-2 inhibition IC50
# Chain of MAPKAP-K2 (P49137 whole entry): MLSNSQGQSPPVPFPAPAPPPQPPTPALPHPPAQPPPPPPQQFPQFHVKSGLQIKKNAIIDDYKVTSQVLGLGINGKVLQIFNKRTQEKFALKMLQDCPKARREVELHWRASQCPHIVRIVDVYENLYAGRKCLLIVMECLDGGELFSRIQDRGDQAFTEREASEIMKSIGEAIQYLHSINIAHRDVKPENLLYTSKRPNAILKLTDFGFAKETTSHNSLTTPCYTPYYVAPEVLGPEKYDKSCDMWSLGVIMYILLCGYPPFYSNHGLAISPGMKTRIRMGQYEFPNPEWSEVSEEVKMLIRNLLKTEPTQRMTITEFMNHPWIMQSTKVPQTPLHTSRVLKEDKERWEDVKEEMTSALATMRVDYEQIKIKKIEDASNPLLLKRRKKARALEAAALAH
# Chain of CDK-1 (P06493 whole entry, species assumed): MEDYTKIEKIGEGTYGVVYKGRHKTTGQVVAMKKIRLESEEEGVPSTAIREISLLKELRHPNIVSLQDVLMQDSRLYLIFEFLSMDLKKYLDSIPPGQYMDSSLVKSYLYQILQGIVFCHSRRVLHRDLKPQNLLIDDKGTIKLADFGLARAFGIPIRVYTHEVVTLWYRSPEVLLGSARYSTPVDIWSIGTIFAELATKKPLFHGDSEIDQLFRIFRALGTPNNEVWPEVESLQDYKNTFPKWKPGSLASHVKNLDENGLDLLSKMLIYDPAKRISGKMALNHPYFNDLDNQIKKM
# Chain of CDK-1 (P14635 whole entry partner, species assumed): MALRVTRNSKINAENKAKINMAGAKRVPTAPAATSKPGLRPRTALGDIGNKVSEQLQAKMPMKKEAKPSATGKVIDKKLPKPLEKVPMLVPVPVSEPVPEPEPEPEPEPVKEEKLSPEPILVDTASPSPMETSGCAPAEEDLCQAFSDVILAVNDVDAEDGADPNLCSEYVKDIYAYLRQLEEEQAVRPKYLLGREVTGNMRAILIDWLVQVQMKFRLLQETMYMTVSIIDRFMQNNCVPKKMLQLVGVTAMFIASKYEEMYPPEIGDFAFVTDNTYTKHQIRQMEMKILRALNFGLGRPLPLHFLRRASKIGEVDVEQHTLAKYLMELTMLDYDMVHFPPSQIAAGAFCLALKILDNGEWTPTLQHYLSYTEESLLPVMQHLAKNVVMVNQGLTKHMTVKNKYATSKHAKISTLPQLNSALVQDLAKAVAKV
SMILES,activity (efficacy against MAPKAP-K2) (MAPKAP-K2),IC50 (CDK-2) [µM],IC50 (CDK-1) [µM],melting point [°C],IC50 (CDK-2; [1]) [µM]
N[C@H]1CC[C@H](Nc2cc(Nc3ccc(F)c(Cl)c3)n3ncc(Br)c3n2)CC1 [Compound 2],++,< 100,< 100,–,–
CCOC(=O)c1cnn2c(Nc3ccc(F)c(Cl)c3)cc(N[C@H]3CC[C@H](N)CC3)nc12 [Compound 9],–,–,< 100,221 to 223,–
Cc1c(N[C@H]2CC[C@H](N)CC2)nc2ccnn2c1Nc1ccc(F)c(Cl)c1 [Compound 10],+++,< 100,< 100,–,–
CCCc1c(N[C@H]2CC[C@H](N)CC2)nc2ccnn2c1Nc1ccc(F)c(Cl)c1 [Compound 11],+++,< 100,< 100,–,–
NC1CCC(Nc2nc3ccnn3c(Nc3ccc(F)c(Cl)c3)c2-c2ccccc2)CC1 (stereo not shown) [Compound 12],+++,< 100,< 100,–,–
Cc1c(N[C@H]2CC[C@H](N)CC2)nc2ccnn2c1Nc1ccccc1Cl [Compound 15],+++,< 100,< 100,–,–
CCc1c(N[C@H]2CC[C@H](N)CC2)nc2ccnn2c1Nc1ccccc1Cl [Compound 16],+++,< 100,< 100,–,–
C=CCc1c(N[C@H]2CC[C@H](N)CC2)nc2ccnn2c1Nc1ccccc1Cl [Compound 17],+++,–,< 100,153 to 155,–
C=CCc1c(N[C@H]2CC[C@H](N)CC2)nc2ccnn2c1Nc1ccc(F)c(Cl)c1 [Compound 19],+++,–,< 100,176 to 178,–
CCc1c(N[C@H]2CC[C@H](N)CC2)nc2ccnn2c1Nc1ccc(F)c(Cl)c1 [Compound 23],+++,< 100,< 100,–,–
N[C@H]1CC[C@H](Nc2nc3ccnn3c(Nc3ccc(F)c(Cl)c3)c2Cc2ccccc2)CC1 [Compound 24],+++,–,< 100,–,–
CCc1c(N[C@H]2CC[C@H](N)CC2)nc2ccnn2c1Nc1ccc(Cl)cc1 [Compound 26],+++,–,< 100,–,–
CCc1c(N[C@H]2CC[C@H](N)CC2)nc2ccnn2c1Nc1ccc(OC)cc1 [Compound 28],+++,–,< 100,–,< 100
CCc1c(N[C@H]2CC[C@H](N)CC2)nc2ccnn2c1Nc1ccccc1C [Compound 29],+++,–,< 100,176 to 178,–
CCc1c(N[C@H]2CC[C@H](N)CC2)nc2ccnn2c1Nc1ccc(C)c(C)c1 [Compound 30],+++,–,< 100,–,–
CCOc1ccc(Nc2c(CC)c(N[C@H]3CC[C@H](N)CC3)nc3ccnn23)cc1 [Compound 31],+++,–,< 100,131 to 133,< 100
CCOc1ccc(Nc2c(C)c(N[C@H]3CC[C@H](N)CC3)nc3ccnn23)cc1 [Compound 32],+++,–,< 100,–,< 100

SMILES,activity (efficacy against MAPKAP-K2) (MAPKAP-K2),IC50 (CDK-2) [µM],IC50 (CDK-1) [µM],melting point [°C],IC50 (CDK-2; [1]) [µM]
CCc1c(N[C@H]2CC[C@H](N)CC2)nc2ccnn2c1Nc1ccc(Oc2ccccc2)cc1 [Compound 33],+++,–,< 100,147 to 149,–
CCc1c(N[C@H]2CC[C@H](N)CC2)nc2ccnn2c1Nc1ccc(OCc2ccccc2)cc1 [Compound 35],+++,–,< 100,120 to 122,< 100
CCc1c(N[C@H]2CC[C@H](N)CC2)nc2ccnn2c1Nc1ccc(SC)cc1 [Compound 36],+++,–,< 100,190 to 192,–
Cc1c(N[C@H]2CC[C@H](N)CC2)nc2ccnn2c1Nc1cccc(Cl)c1 [Compound 85],+++,–,–,209 to 212,< 100
Cc1c(N[C@H]2CC[C@H](N)CC2)nc2ccnn2c1Nc1cccc(O)c1 [Compound 88],+++,–,–,145 to 150,< 100
Cc1c(N[C@H]2CC[C@H](N)CC2)nc2ccnn2c1Nc1cccc(CO)c1 [Compound 97],+++,–,–,97 to 100,< 100
Cc1c(N[C@H]2CC[C@H](N)CC2)nc2ccnn2c1Nc1ccccc1 [Compound 102],+++,–,–,96 to 99,< 100
Cc1c(N[C@H]2CC[C@H](N)CC2)nc2ccnn2c1Nc1ccc2ncsc2c1 [Compound 112],+++,–,–,100 to 108,< 100
CCc1c(N[C@H]2CC[C@H](N)CC2)nc2ccnn2c1Nc1ccc(OC)c(C(F)(F)F)c1 [Compound 113],++,–,–,181 to 183,< 100
CC(C)c1c(N[C@H]2CC[C@H](N)CC2)nc2ccnn2c1Nc1ccc(F)c(Cl)c1 [Compound 115],+++,–,–,165 to 168,< 100
Cc1c(N[C@H]2CC[C@H](N)CC2)nc2ccnn2c1Nc1ccc(-n2ccnc2)cc1 [Compound 118],+++,–,–,210 to 215,< 100
Cc1c(N[C@H]2CC[C@H](N)CC2)nc2ccnn2c1Nc1ccc2c(c1)OCCO2 [Compound 126],+++,–,–,68 to 72,< 100
Cc1c(N[C@H]2CC[C@H](N)CC2)nc2ccnn2c1Nc1ccc(N2CCCCC2)cc1 [Compound 129],+++,–,–,58 to 66,< 100
CCc1c(N[C@H]2CC[C@H](N)CC2)nc2ccnn2c1Nc1cccc(C(N)=O)c1 [Compound 151],++,–,–,206 to 210,< 100
Cc1nc2ccc(Nc3c(C)c(N[C@H]4CC[C@H](N)CC4)nc4ccnn34)cc2s1 [Compound 155],+++,–,–,210 to 215,< 100
CCc1c(N[C@H]2CC[C@H](N)CC2)nc2ccnn2c1Nc1ccc(Br)cc1 [Compound 159],+++,–,–,184 to 187,< 100
CCc1c(N[C@H]2CC[C@H](N)CC2)nc2ccnn2c1Nc1ccc(I)cc1 [Compound 168],++,–,–,104 to 106,< 100
